The record followed here is PubChem BioAssay AID292 (DTP/NCI, 2004).

This assay relates to B6C3F1 mice, ip Sarcoma M5076, median survival T/C. Description: NCI In Vivo Anticancer Drug Screen. Data for tumor model Sarcoma M5076 (intraperitoneal) in B6C3F1 mice. Particulars: endpoint: median survival time, higher = longer survival. Put shortly: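 The readout is a ratio of survival in drug-treated animals to survival in animals given vehicle alone, taken in mice bearing a transplanted tumour line.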

[1] abbreviates: dose: 12.5 mg/kg/injection, schedule: Q04DX004 (ip), vehicle: water.
The mark [2] stands for this setting: dose: 25.0 mg/kg/injection, schedule: Q04DX004 (ip), vehicle: water.
The mark [3] stands for this setting: dose: 50.0 mg/kg/injection, schedule: Q04DX004 (ip), vehicle: water.
Where [4] appears, read: dose: 100.0 mg/kg/injection, schedule: Q04DX004 (ip), vehicle: water.
Where [5] appears, read: dose: 200.0 mg/kg/injection, schedule: Q04DX004 (ip), vehicle: water.
Where [6] appears, read: dose: 6.25 mg/kg/injection, schedule: Q04DX004 (ip), vehicle: saline with Tween-80.
The mark [7] stands for this setting: dose: 12.5 mg/kg/injection, schedule: Q04DX004 (ip), vehicle: saline with Tween-80.
[8] abbreviates: dose: 25.0 mg/kg/injection, schedule: Q04DX004 (ip), vehicle: saline with Tween-80.
Setting [9] is: dose: 50.0 mg/kg/injection, schedule: Q04DX004 (ip), vehicle: saline with Tween-80.
The mark [10] stands for this setting: dose: 100.0 mg/kg/injection, schedule: Q04DX004 (ip), vehicle: saline with Tween-80.
[11] abbreviates: dose: 200.0 mg/kg/injection, schedule: Q04DX004 (ip), vehicle: saline with Tween-80.
[12] abbreviates: dose: 400.0 mg/kg/injection, schedule: Q04DX004 (ip), vehicle: saline with Tween-80.
Where [13] appears, read: dose: 50.0 mg/kg/injection, schedule: Q04DX004 (ip), vehicle: Klucel (hydroxypropylcellulose) (HPC).
Where [14] appears, read: dose: 100.0 mg/kg/injection, schedule: Q04DX004 (ip), vehicle: Klucel (hydroxypropylcellulose) (HPC).
The mark [15] stands for this setting: dose: 200.0 mg/kg/injection, schedule: Q04DX004 (ip), vehicle: Klucel (hydroxypropylcellulose) (HPC).
Where [16] appears, read: dose: 400.0 mg/kg/injection, schedule: Q04DX004 (ip), vehicle: Klucel (hydroxypropylcellulose) (HPC).

The structures appear in SMILES notation. Several values for one entry are separate records, joined by “and”; a condition that tells them apart may be missing. Equal values may be shown once. Inconclusive results and toxic doses are left out.

Regarding `O=CC(O)C(O)C(O)C(O)CO` (stereo unspecified), the T/C is 93 % of control (dose: 75.0 mg/kg/injection, schedule: Q04DX004 (ip), vehicle: saline); 96 % of control (dose: 150.0 mg/kg/injection, schedule: Q04DX004 (ip), vehicle: saline); 96 % of control (dose: 300.0 mg/kg/injection, schedule: Q04DX004 (ip), vehicle: saline); 98 % of control (dose: 600.0 mg/kg/injection, schedule: Q04DX004 (ip), vehicle: saline); 93 % of control (dose: 1200.0 mg/kg/injection, schedule: Q04DX004 (ip), vehicle: saline).

For the compound `C/C=C/C(C)C1OC1(C)C(O)C1COC(=O)C(O)C(OC)C(C)C(=O)C(C)C(O)/C(C)=C/C(C)C(=O)CC(O)C(C)C1=O` (stereo unspecified), the T/C was 97 % of control (dose: 2.5 micrograms/kg/injection, schedule: Q04DX004 (ip), vehicle: saline); 91 % of control (dose: 5.0 micrograms/kg/injection, schedule: Q04DX004 (ip), vehicle: saline); 102 % of control (dose: 10.0 micrograms/kg/injection, schedule: Q04DX004 (ip), vehicle: saline); 96 % of control (dose: 20.0 micrograms/kg/injection, schedule: Q04DX004 (ip), vehicle: saline).

As to `Nc1nc(C=O)nc2c1ncn2C1OC(CO)C(O)C1O` (stereo unspecified), the T/C was 104 % of control under setting [1]; 104 % of control under setting [2]; 106 % of control under setting [3]; 109 % of control under setting [4]; 123 % of control under setting [5].

`NCCCC(N)(C(=O)O)C(F)F` (stereo unspecified): the T/C was 96 % of control (dose: 50.0 mg/kg/injection, schedule: Q04DX004 (ip), vehicle: saline); 99 % of control (dose: 100.0 mg/kg/injection, schedule: Q04DX004 (ip), vehicle: saline); 99 % of control (dose: 200.0 mg/kg/injection, schedule: Q04DX004 (ip), vehicle: saline); 99 % of control (dose: 400.0 mg/kg/injection, schedule: Q04DX004 (ip), vehicle: saline); 102 % of control (dose: 800.0 mg/kg/injection, schedule: Q04DX004 (ip), vehicle: saline).

`Nc1nc(Br)nc2c1ncn2C1CC(O)C(CO)O1` (stereo unspecified): the T/C was 102 % of control (dose: 7.5 mg/kg/injection, schedule: Q03HX009 (ip), vehicle: saline); 118 % of control (dose: 15.0 mg/kg/injection, schedule: Q03HX009 (ip), vehicle: saline); 109 % of control (dose: 30.0 mg/kg/injection, schedule: Q03HX009 (ip), vehicle: saline); 116 % of control (dose: 60.0 mg/kg/injection, schedule: Q03HX009 (ip), vehicle: saline); 113 % of control (dose: 120.0 mg/kg/injection, schedule: Q03HX009 (ip), vehicle: saline).

`Cc1[nH]c(=O)[nH]c(=O)c1CCSSCCc1c(C)[nH]c(=O)[nH]c1=O`: the T/C by setting is: (dose: 37.5 mg/kg/injection, schedule: Q04DX004 (ip), vehicle: saline with Tween-80) 90 % of control; (dose: 75.0 mg/kg/injection, schedule: Q04DX004 (ip), vehicle: saline with Tween-80) 86 % of control; (dose: 150.0 mg/kg/injection, schedule: Q04DX004 (ip), vehicle: saline with Tween-80) 89 % of control; (dose: 300.0 mg/kg/injection, schedule: Q04DX004 (ip), vehicle: saline with Tween-80) 86 % of control; (dose: 600.0 mg/kg/injection, schedule: Q04DX004 (ip), vehicle: saline with Tween-80) 90 % of control.

For the compound `O=C1C2CC=CCC2C(=O)N1SC(Cl)(Cl)Cl` (stereo unspecified), the T/C (dose: 3.13 mg/kg/injection, schedule: Q04DX004 (ip), vehicle: saline with Tween-80) was 110 % of control; the T/C under setting [6] was 120 % of control; the T/C under setting [7] is 91 % of control; the T/C under setting [8] is 100 % of control.

For the compound `O=C1C=CC(O)N1` (stereo unspecified), the T/C (dose: 10.0 mg/kg/injection, schedule: Q01DX009 (ip), vehicle: water) was 95 % of control; the T/C (dose: 20.0 mg/kg/injection, schedule: Q01DX009 (ip), vehicle: water) was 101 % of control; the T/C (dose: 40.0 mg/kg/injection, schedule: Q01DX009 (ip), vehicle: water) was 101 % of control; the T/C (dose: 80.0 mg/kg/injection, schedule: Q01DX009 (ip), vehicle: water) is 101 % of control; the T/C (dose: 160.0 mg/kg/injection, schedule: Q01DX009 (ip), vehicle: water) is 94 % of control.

For the compound `CC(=O)Oc1ccccc1O`, the T/C (dose: 6.25 mg/kg/injection, schedule: Q04DX004 (ip), vehicle: saline + Tween-80 + alcohol) is 112 % of control; the T/C (dose: 12.5 mg/kg/injection, schedule: Q04DX004 (ip), vehicle: saline + Tween-80 + alcohol) was 107 % of control; the T/C (dose: 25.0 mg/kg/injection, schedule: Q04DX004 (ip), vehicle: saline + Tween-80 + alcohol) was 95 % of control; the T/C (dose: 50.0 mg/kg/injection, schedule: Q04DX004 (ip), vehicle: saline + Tween-80 + alcohol) was 98 % of control.

Turning to `O=C1C2C3C=CC(C2C(=O)N1CO)C1C2C(=O)N(CO)C(=O)C2C31` (stereo unspecified), the T/C runs as follows: under setting [1], 103 % of control; under setting [2], 103 % of control; under setting [3], 98 % of control.

As for `Cc1c(O)/c(=C\O)c2nc3c(=O)ccc(C(=O)NCCN(C)C)c3[nH]c2c1=O`, the T/C was 100 % of control under setting [2], 107 % of control under setting [3], 107 % of control under setting [4] and 112 % of control under setting [5].

Regarding `CCc1c(C)c(SC)n(C)c(=O)c1C#N`, the T/C reads like this: under setting [9], 111 % of control; under setting [10], 111 % of control; under setting [11], 111 % of control; under setting [12], 96 % of control.

Turning to `CC1=CC(C)(C)N=C2SC(COc3ccccc3)=NN12`, the T/C reads like this: under setting [9], 104 % of control; under setting [10], 96 % of control; under setting [11], 93 % of control; under setting [12], 99 % of control.

Consider `CC(C)(C)NC(C1=CC(C)(C)c2ccccc2C1=O)c1ccccc1` (stereo unspecified), for which the T/C was 103 % of control under setting [13], 101 % of control under setting [14], 110 % of control under setting [15] and 104 % of control under setting [16].

In the case of `CC1/C=C/C=C/CC/C=C/C=C/C=C/C=C/C(OC2OC(C)C(O)C(N)C2O)CC2OC(CC(O)C(O)CCC(O)CC(O)CC(O)CC(=O)OC(C)C(C)C1O)CC(O)C2C(=O)O` (stereo unspecified), the T/C by setting is: under setting [6], 122 % of control; under setting [7], 117 % of control; under setting [8], 118 % of control and 122 % of control; under setting [9], 96 % of control and 97 % of control; under setting [10], 96 % of control and 107 % of control.

On to `Oc1c(Cl)cc(Cl)cc1C=NCCSc1ccc(Cl)cc1`, for which the T/C reads like this: under setting [13], 97 % of control and 121 % of control; under setting [14], 98 % of control and 117 % of control; under setting [15], 97 % of control and 110 % of control; under setting [16], 94 % of control and 112 % of control; (dose: 800.0 mg/kg/injection, schedule: Q04DX004 (ip), vehicle: Klucel (hydroxypropylcellulose) (HPC)) 100 % of control.

Regarding `CSC1=NCc2c(sc3c2CCCC3)N1`, the T/C (dose: 37.5 mg/kg/injection, schedule: Q04DX004 (ip), vehicle: Klucel (hydroxypropylcellulose) (HPC)) was 98 % of control; the T/C (dose: 75.0 mg/kg/injection, schedule: Q04DX004 (ip), vehicle: Klucel (hydroxypropylcellulose) (HPC)) was 103 % of control; the T/C (dose: 150.0 mg/kg/injection, schedule: Q04DX004 (ip), vehicle: Klucel (hydroxypropylcellulose) (HPC)) was 99 % of control; the T/C (dose: 300.0 mg/kg/injection, schedule: Q04DX004 (ip), vehicle: Klucel (hydroxypropylcellulose) (HPC)) is 102 % of control.

With `CCOC(=O)N(C)N=NC`, the T/C is, setting by setting: (dose: 1.3 mg/kg/injection, schedule: Q04DX004 (ip), vehicle: saline) 110 % of control; (dose: 2.16 mg/kg/injection, schedule: Q04DX004 (ip), vehicle: saline) 119 % of control; (dose: 3.6 mg/kg/injection, schedule: Q04DX004 (ip), vehicle: saline) 122 % of control; (dose: 10.0 mg/kg/injection, schedule: Q04DX004 (ip), vehicle: saline) 155 % of control; (dose: 30.0 mg/kg/injection, schedule: Q04DX004 (ip), vehicle: saline) 158 % of control; (dose: 60.0 mg/kg/injection, schedule: Q04DX004 (ip), vehicle: saline) 168 % of control.
